According to ChEMBL document CHEMBL2417538, “Antithrombotic effects of LB30870, a potent, orally active, selective and direct thrombin inhibitor, and pharmacokinetics of its prodrug” (Bioorg Med Chem Lett, 2013):
≈ marks a conversion by molar mass, not a printed value. Each block holds one compound with its values, some of them ahead of it.

What was measured:
[1] = Aqueous solubility of the compound at pH 6.3; assay type: physicochemical; conditions: aqueous solution
[2] = Aqueous solubility of the compound at pH 9.0; assay type: physicochemical; conditions: aqueous solution
[3] = Aqueous solubility of the compound at pH 7.4; assay type: physicochemical; conditions: aqueous solution
[4] = Distribution coefficient, log D of the compound at pH 7 by potentiometric titration; assay type: physicochemical; conditions: octanol/water
Rattus norvegicus [5] = assay: Anticoagulant activity in Sprague-Dawley rat deep vein thrombosis model assessed as activated partial thromboplastin time change at 0.025 mg/kg, iv administered as bolus and 1 ug/kg/min administered as infusion relative to control; assay type: functional
Rattus norvegicus [6] = assay: Anticoagulant activity in Sprague-Dawley rat deep vein thrombosis model assessed as prothrombin time change at 0.125 mg/kg, iv administered as bolus and 5 ug/kg/min administered as infusion relative to control; assay type: functional
Rattus norvegicus [7] = assay: Anticoagulant activity in Sprague-Dawley rat deep vein thrombosis model assessed as wet clot weight at 0.125 mg/kg, iv administered as bolus and 5 ug/kg/min administered as infusion (reference value: 83 +/- 5.1 mg); assay type: functional
[8] = molecular target: Tissue-type plasminogen activator (Homo sapiens, UniProt P00750); assay: Inhibition of human t-PA
Sequence of Tissue-type plasminogen activator (P00750 whole entry, the tested form may be a part): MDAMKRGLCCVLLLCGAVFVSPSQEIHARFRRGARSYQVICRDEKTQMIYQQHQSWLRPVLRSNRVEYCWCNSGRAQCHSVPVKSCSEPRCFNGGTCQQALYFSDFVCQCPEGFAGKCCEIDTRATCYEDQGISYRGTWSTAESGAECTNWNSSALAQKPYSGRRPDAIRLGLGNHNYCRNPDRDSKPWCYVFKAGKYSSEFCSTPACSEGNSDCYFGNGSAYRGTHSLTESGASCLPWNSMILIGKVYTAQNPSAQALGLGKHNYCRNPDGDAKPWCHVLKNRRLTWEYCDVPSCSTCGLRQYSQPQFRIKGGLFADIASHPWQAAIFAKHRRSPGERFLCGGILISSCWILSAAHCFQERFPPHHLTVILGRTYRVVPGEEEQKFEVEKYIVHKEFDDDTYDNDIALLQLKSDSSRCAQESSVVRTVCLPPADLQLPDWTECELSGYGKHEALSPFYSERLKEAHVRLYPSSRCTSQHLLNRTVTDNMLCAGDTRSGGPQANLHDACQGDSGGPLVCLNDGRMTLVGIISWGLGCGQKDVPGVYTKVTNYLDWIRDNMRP

Rattus norvegicus [9] = assay: Anticoagulant activity in Sprague-Dawley rat deep vein thrombosis model assessed as activated partial thromboplastin time change at 0.044 mg/kg, iv administered as bolus and 1.75 ug/kg/min administered as infusion relative to control; assay type: functional
Rattus norvegicus [10] = assay: Anticoagulant activity in Sprague-Dawley rat deep vein thrombosis model assessed as wet clot weight at 0.044 mg/kg, iv administered as bolus and 1.75 ug/kg/min administered as infusion (reference value: 83 +/- 5.1 mg); assay type: functional
Plasminogen = Plasminogen (Homo sapiens, UniProt P00747); assay: Inhibition of human plasmin
Sequence of Plasminogen (P00747 97-580 limits assumed): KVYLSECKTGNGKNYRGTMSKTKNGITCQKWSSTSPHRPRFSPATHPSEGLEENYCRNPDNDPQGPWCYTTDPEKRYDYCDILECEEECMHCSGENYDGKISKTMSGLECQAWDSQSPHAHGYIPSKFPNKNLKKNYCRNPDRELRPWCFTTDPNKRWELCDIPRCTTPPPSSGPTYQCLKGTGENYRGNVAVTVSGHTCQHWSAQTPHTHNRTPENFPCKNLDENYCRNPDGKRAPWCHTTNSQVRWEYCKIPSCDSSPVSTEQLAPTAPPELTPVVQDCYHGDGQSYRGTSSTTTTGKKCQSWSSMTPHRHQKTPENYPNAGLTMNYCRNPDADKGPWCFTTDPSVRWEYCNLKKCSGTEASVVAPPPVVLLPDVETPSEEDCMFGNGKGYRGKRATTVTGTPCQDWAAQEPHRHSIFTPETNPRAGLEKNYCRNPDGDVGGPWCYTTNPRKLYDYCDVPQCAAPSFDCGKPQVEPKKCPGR
Sequence of Plasminogen (P00747 581-810 limits assumed): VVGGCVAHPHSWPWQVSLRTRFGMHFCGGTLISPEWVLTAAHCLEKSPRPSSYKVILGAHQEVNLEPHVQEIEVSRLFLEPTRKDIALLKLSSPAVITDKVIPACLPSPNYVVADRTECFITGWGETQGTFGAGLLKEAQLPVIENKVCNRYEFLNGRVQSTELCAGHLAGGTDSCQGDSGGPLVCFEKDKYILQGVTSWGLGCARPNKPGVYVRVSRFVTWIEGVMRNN

Rattus norvegicus [11] = assay: Anticoagulant activity in Sprague-Dawley rat deep vein thrombosis model assessed as activated partial thromboplastin time change at […], iv administered as bolus and 2.5 ug/kg/min administered as infusion relative to control; assay type: functional
Trypsin = Trypsin (Homo sapiens, UniProt P07477+P07478+P35030); assay: Inhibition of human trypsin; assay type: protein assay
Rattus norvegicus [12] = assay: Anticoagulant activity in Sprague-Dawley rat deep vein thrombosis model assessed as prothrombin time change at 0.025 mg/kg, iv administered as bolus and 1 ug/kg/min administered as infusion relative to control; assay type: functional
Rattus norvegicus [13] = assay: Anticoagulant activity in Sprague-Dawley rat deep vein thrombosis model assessed as activated partial thromboplastin time change at 0.125 mg/kg, iv administered as bolus and 5 ug/kg/min administered as infusion relative to control; assay type: functional
Rattus norvegicus [14] = assay: Anticoagulant activity in Sprague-Dawley rat deep vein thrombosis model assessed as reduction in wet clot weight administered as iv bolus followed by infusion relative to control; assay type: functional, organism-based
Rattus norvegicus [15] = assay: Anticoagulant activity in Sprague-Dawley rat deep vein thrombosis model assessed as prothrombin time change at 0.044 mg/kg, iv administered as bolus and 1.75 ug/kg/min administered as infusion relative to control; assay type: functional
Rattus norvegicus [16] = assay: Anticoagulant activity in Sprague-Dawley rat deep vein thrombosis model assessed as prothrombin time change at […], iv administered as bolus and 2.5 ug/kg/min administered as infusion relative to control; assay type: functional
Rattus norvegicus [17] = assay: Anticoagulant activity in Sprague-Dawley rat deep vein thrombosis model assessed as prothrombin time change at 0.25 mg/kg, iv administered as bolus and 10 ug/kg/min administered as infusion relative to control; assay type: functional
Coagulation factor X = Coagulation factor X (Homo sapiens, UniProt P00742); assay: Inhibition of human factor 10a
Sequence of Coagulation factor X (P00742 41-179 limits assumed): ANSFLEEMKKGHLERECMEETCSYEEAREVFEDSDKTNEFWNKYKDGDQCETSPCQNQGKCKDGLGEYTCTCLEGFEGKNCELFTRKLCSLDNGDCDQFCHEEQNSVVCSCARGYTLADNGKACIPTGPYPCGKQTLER
Sequence of Coagulation factor X (P00742 235-488 limits assumed): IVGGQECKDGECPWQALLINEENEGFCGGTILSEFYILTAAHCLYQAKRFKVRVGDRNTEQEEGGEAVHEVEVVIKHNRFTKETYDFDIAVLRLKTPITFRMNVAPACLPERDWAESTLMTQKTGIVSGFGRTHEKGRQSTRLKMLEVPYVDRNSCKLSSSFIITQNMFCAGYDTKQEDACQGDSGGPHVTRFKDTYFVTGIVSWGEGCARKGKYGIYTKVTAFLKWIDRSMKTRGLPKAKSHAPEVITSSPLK

Rattus norvegicus [18] = assay: Anticoagulant activity in Sprague-Dawley rat deep vein thrombosis model assessed as activated partial thromboplastin time change at 0.25 mg/kg, iv administered as bolus and 10 ug/kg/min administered as infusion relative to control; assay type: functional
Rattus norvegicus [19] = assay: Anticoagulant activity in Sprague-Dawley rat deep vein thrombosis model assessed as reduction in wet clot weight at 35 ug/kg, iv administered as infusion; assay type: functional
[20] = Plasma protein binding in human at 1 ug/ml by ultra-filtration method; assay type: ADME, cell-free; conditions: read-out: PPB (converted)
[21] = Plasma protein binding in rat at 1 ug/ml by ultra-filtration method; assay type: ADME, cell-free; conditions: read-out: PPB (converted)
Rattus norvegicus [22] = assay: Anticoagulant activity in Sprague-Dawley rat deep vein thrombosis model assessed as wet clot weight at […], iv administered as bolus and 2.5 ug/kg/min administered as infusion (reference value: 83 +/- 5.1 mg); assay type: functional
[23] = Dissociation constant, pKa of the compound by potentiometric titration; assay type: physicochemical
Rattus norvegicus [24] = assay: AUC in Sprague-Dawley rat at 30 mg/kg, po assessed as LB30870; assay type: ADME, organism-based, Plasma; parameters: dose 30 mg/kg, route oral; conditions: in vivo
Rattus norvegicus [25] = assay: Oral bioavailability in Sprague-Dawley rat at 30 mg/kg assessed as LB30870; assay type: ADME, organism-based; conditions: in vivo
Canis familiaris [26] = assay: Cmax in Beagle dog at 10 mg/kg, po assessed as LB30887; assay type: ADME, organism-based, Canis lupus familiaris; parameters: dose 10 mg/kg, route oral; conditions: in vivo
Canis familiaris [27] = assay: Oral bioavailability in Beagle dog at 10 mg/kg assessed as LB30870; assay type: ADME, organism-based, Canis lupus familiaris; conditions: in vivo
[28] = Aqueous solubility of the compound at pH 3.04; assay type: physicochemical; conditions: aqueous solution
Rattus norvegicus [29] = assay: Cmax in Sprague-Dawley rat at 30 mg/kg, po assessed as LB30870; assay type: ADME, organism-based; parameters: dose 30 mg/kg, route oral; conditions: in vivo
[30] = Aqueous solubility of the compound at pH 4.73; assay type: physicochemical; conditions: aqueous solution
Rattus norvegicus [31] = assay: Cmax in Sprague-Dawley rat at 30 mg/kg, po assessed as LB30887; assay type: ADME, organism-based; parameters: dose 30 mg/kg, route oral; conditions: in vivo
[32] = Aqueous solubility of the compound at pH 6.96; assay type: physicochemical; conditions: aqueous solution
Canis familiaris [33] = assay: Cmax in Beagle dog at 10 mg/kg, po assessed as LB30870; assay type: ADME, organism-based, Canis lupus familiaris; parameters: dose 10 mg/kg, route oral; conditions: in vivo
Canis familiaris [34] = assay: AUC in Beagle dog at 10 mg/kg, po assessed as LB30870; assay type: ADME, organism-based, Canis lupus familiaris, Plasma; parameters: dose 10 mg/kg, route oral; conditions: in vivo
Rattus norvegicus [35] = assay: AUC in Sprague-Dawley rat at 30 mg/kg, po assessed as LB30887; assay type: ADME, organism-based, Plasma; parameters: dose 30 mg/kg, route oral; conditions: in vivo
Canis familiaris [36] = assay: AUC in Beagle dog at 10 mg/kg, po assessed as LB30887; assay type: ADME, organism-based, Canis lupus familiaris, Plasma; parameters: dose 10 mg/kg, route oral; conditions: in vivo

solubility [1]: 2.3 µg/mL (≈ 3.66 µM)
solubility [2]: 0.3 µg/mL (≈ 0.478 µM)
solubility [3]: 0.4 µg/mL (≈ 0.637 µM)
logD [4]: 3.7
Compound: CCCCCCOC(=O)NC(=N)c1ccc(NCc2nc3cc(C(=O)N(CCC(=O)OCC)c4ccccn4)ccc3n2C)cc1 [DABIGATRAN ETEXILATE]

Compound: N=C(N)c1ccc(CNC(=O)[C@@H]2CCN2C(=O)[C@H](NCC(=O)O)C2CCCCC2)cc1
fold change (FC) (Rattus norvegicus [5]): 1.67
fold change (FC) (Rattus norvegicus [6]): 2.72
Activity (Rattus norvegicus [7]): 3.6 mg
Ki [8]: 1.51 µM
fold change (FC) (Rattus norvegicus [9]): 1.98
Activity (Rattus norvegicus [10]): 25.6 mg
Ki (Plasminogen): 1.8 µM
fold change (FC) (Rattus norvegicus [11]): 1.83
Ki (Trypsin): 0.0043 µM
fold change (FC) (Rattus norvegicus [12]): 1.13
fold change (FC) (Rattus norvegicus [13]): 3.95
Activity (Rattus norvegicus [14]): Dose-dependent effect
fold change (FC) (Rattus norvegicus [15]): 1.42
fold change (FC) (Rattus norvegicus [16]): 1.46
fold change (FC) (Rattus norvegicus [17]): 3.66
Ki (Coagulation factor X): 3.68 µM
fold change (FC) (Rattus norvegicus [18]): 6.05
ED50 (Rattus norvegicus [19]): 1.4 µg/kg/min
fraction unbound at 1 ug/ml [20]: 0.847
fraction unbound at 1 ug/ml [21]: 0.9
Activity (Rattus norvegicus [22]): 15.9 mg

pKa [23]: 4.73
logD [4]: 0.41
Compound: CCOC(=O)CN[C@@H](C(=O)N1CC[C@H]1C(=O)NCc1ccc(/C(N)=N\O)cc1)C1CCCCC1 [XIMELAGATRAN]

AUC (Rattus norvegicus [24]): 38 µg·min/mL
F (Rattus norvegicus [25]): 13%
Cmax (Canis familiaris [26]): 2100 ng/mL
F (Canis familiaris [27]): 35%
solubility [28]: 550 µg/mL (≈ 952 µM)
Cmax (Rattus norvegicus [29]): 440 ng/mL
solubility [30]: 10 µg/mL (≈ 17.3 µM)
Cmax (Rattus norvegicus [31]): 1740 ng/mL
solubility [32]: < 10 µg/mL
Cmax (Canis familiaris [33]): 3700 ng/mL
AUC (Canis familiaris [34]): 491 µg·min/mL
AUC (Rattus norvegicus [35]): 203 µg·min/mL
pKa [23]: 3.98
AUC (Canis familiaris [36]): 100 µg·min/mL
logD [4]: 1.74
Compound: CCOC(=O)CN[C@H](C(=O)N1CCC[C@H]1C(=O)NCc1ccc(/C(N)=N/O)s1)C(c1ccccc1)c1ccccc1

Ki [8]: 87.8 µM
Ki (Plasminogen): 257 µM
Ki (Trypsin): 1.99 µM
Ki (Coagulation factor X): 53 µM
Compound: CC1CNc2c(cccc2S(=O)(=O)N[C@@H](CCCNC(=N)N)C(=O)N2CC[C@@H](C)C[C@@H]2C(=O)O)C1 (stereo partly specified) [ARGATROBAN]
